Results taken from patent EP0097023A2, “Prostaglandin D derivatives, process for their preparation and compositions containing them” (ONO PHARMACEUTICAL CO., LTD., priority 1982, dated 1983).
Where two headings read alike, the source gives them in different places.

Key:
[1] = Blood pressure depression after intravenous administration to the allobarbital-anesthetized dog; format: in vivo
[2] = system: human myelogenous leukemic cells (HL-60); test: Inhibition of proliferation of human myelogenous leukemic cells (HL-60), Trypan Blue staining; format: cell-based; conditions: for Surviving Cell Number: stationary culture at 37°C for 4 days, start 1 x 10^5 cells/ml, control 44.0 x 10^4; for inhibition at 5 µg/mL: Homo sapiens
Description: The test on the inhibition of the proliferation of human myelogenous leukemic cells was conducted by a well known method. The human myelogenous leukemic cells (HL-60) were added to an RPMI culture solution containing 10% bovine fetal serum, the number of cells in the culture solution was adjusted to 1 x 10^5 cells/ml, a solution in ethanol of the compound under test was added to give a concentration of 5µg/ml, and the mixture was subjected to stationary culture at 37°C for 4 days. As a control, a culture solution containing 0.1% of ethanol was similarly cultured. The culture solutions were stained by the Trypan Blue staining method and the surviving cell number was measured to determine the degree of inhibition relative to the control.

[3] = Acute toxicity by intraperitoneal administration; conditions: mouse, in vivo, ip; intraperitoneal administration in mice
Description: The acute toxicity of the compounds of the present invention was >50 mg/kg by intraperitoneal administration, so that the prostaglandin D derivatives of the present invention may be considered to be sufficiently safe and suitable for medical use.

[4] = 96 h, HL-60, 5 µg/ml, 37°C for 4 days, relative to control (0.1% ethanol), b55 gives the same values in %, read-out: Degree of Inhibition
[5] = HL-60, concentration of 5 µg/ml, read-out: inhibited the proliferation of the leukemic cells
[6] = dosage of 10 µg/kg animal body weight

| SMILES | blood pressure depression ([1]; dosage of 100 µg/kg animal body weight) | Surviving Cell Number ([2]; HL-60, 5 µg/ml) | inhibition at 5 µg/mL [2, 4] [%] | inhibition at 5 µg/mL [2, 5] [%] | LD50 [3] [mg/kg] | blood pressure depression [1, 6] [mm Hg] | duration of blood pressure depression effect [1, 6] [min] |
| --- | --- | --- | --- | --- | --- | --- | --- |
| CCCCCC=CC=C1C(=O)C=CC1CC=CCCCC(=O)O (stereo not shown) [(5Z,9Z,14EZ)-11-oxoprosta-5,9,12,14-tetraenoic acid] | did not cause blood pressure depression | 3 x 10^4 cells/ml | 93.2 | 93.2 | 78 |  |  |
| CCCCC[C@H](O)/C=C/[C@H]1C(=O)C[C@H](O)[C@@H]1C/C=C\CCCC(=O)O [PGD2, prostaglandin D2] |  | 19.5 x 10^4 cells/ml | 55.6 | 55.6 |  | 26 | 6 |
